Results: patent US4443459A, “α-Tocopheryl ester of 5-substituted picolinic acid and hypotensive composition containing it” (Banyu Pharmaceutical Co., Ltd., priority 1981, dated 1984)

What was measured:
[1] = test system: Spontaneous hypertensive rats; assay: Hypotensive action in spontaneous hypertensive rats, oral (tail artery pressure, plethysmography; Table 1); assay type: in vivo, rat (spontaneous hypertensive, male)
Excerpt: (§1) dl-α-tocopheryl 5-butylpicolinate and dl-α-tocopherol were used after they were each dissolved in a suitable amount of ethyl ether, mixed with a solution containing 2% of Tween 80 and 2% of Span 40 and after removing ethyl ether, uniformly emulsified. 5-Butylpicolinic acid was used as a solution in 2% Tween 80+2% Span.
(§2) Spontaneous hypertensive rats (male, body weight 350 to 370 g) and Wistar rats with a normal blood pressure level (female, body weight 250 to270 g), three per group, were used. Without anesthesia, the pressure of the tail artery was measured by plethysmography.

Normotensive Wistar rats = assay: Hypotensive action in normotensive Wistar rats, oral (tail artery pressure, plethysmography; Table 2); assay type: in vivo, rat (Wistar, female); conditions: for Blood pressure lowering rate, 1h / Blood pressure lowering rate, 2h / Blood pressure lowering rate, 3h / Blood pressure lowering rate, 4h: normotensive Wistar rats
Excerpt: as §1, §2

in vivo = conditions: mouse
Protocol: (§3) ddY-Strain female mice (body weight about 20 g), five per group, were used and each of the test compounds was orally or intraperitoneally administered, and two days after the administration, the number of dead mice was counted. From it, the acute toxicity LD50 of each of the compounds was determined by the Behrens-Kraerber method.

ddY-Strain female mice = assay: in vivo; conditions: mouse, 4000 mg/kg
Protocol: as §3

stomach of rats = assay: Side-effects: gastric trouble after oral administration for 4 consecutive days; assay type: in vivo, rat; conditions: 100 mg/kg
Protocol: dl-α-Tocopheryl 5-butylpicolinate of the invention and 5-butylpicolinic acid as a control were administered orally to rats for 4 consecutive days at a dose of 300 mg/kg (90.9 mg/kg calculated for 5-butylpicolinic acid) and 100 mg/kg. Then, the stomach of each rat was incised and observed for the occurrence of a gastric trouble.

[2] = 9.375 mg/kg oral, spontaneous hypertensive rats
[3] = 37.5 mg/kg oral, spontaneous hypertensive rats
[4] = 3.125 mg/kg oral, spontaneous hypertensive rats
[5] = 12.5 mg/kg oral, spontaneous hypertensive rats

CCCCc1ccc(C(=O)Oc2c(C)c(C)c3c(c2C)CCC(C)(CCCC(C)CCCC(C)CCCC(C)C)O3)nc1 (racemic) [Example 1, dl-α-tocopheryl 5-butylpicolinate]
Blood pressure lowering rate, 1h [1, 2]: 20.3%
Blood pressure lowering rate, 2h [1, 2]: 3.2%
Blood pressure lowering rate, 3h [1, 2]: 0%
Blood pressure lowering rate, 4h [1, 2]: 0%
Blood pressure lowering rate, 1h [1, 3]: 29.0%
Blood pressure lowering rate, 2h [1, 3]: 18.3%
Blood pressure lowering rate, 3h [1, 3]: 13.0%
Blood pressure lowering rate, 4h [1, 3]: 0%
selectivity of hypotensive action for hypertension (in words) ([1]; conclusion from hypertensive vs normotensive rats): more selective for hypertension than 5-butylpicolinic acid
hypotensive action (in words) ([1]; spontaneous hypertensive rats, oral, vs 5-butylpicolinic acid or its mixture with dl-α-tocopherol): strong hypotensive action on spontaneous hypertensive rats substantially equivalent to 5-butylpicolinicacid or a mixture of it with dl-α-tocopherol
Blood pressure lowering rate, 1h (Normotensive Wistar rats; 150 mg/kg oral): 2.4%
Blood pressure lowering rate, 2h (Normotensive Wistar rats; 150 mg/kg oral): 18.3%
Blood pressure lowering rate, 3h (Normotensive Wistar rats; 150 mg/kg oral): 8.7%
Blood pressure lowering rate, 4h (Normotensive Wistar rats; 150 mg/kg oral): 0%
blood pressure lowering effect (in words) (Normotensive Wistar rats; normotensive rats, oral, vs 5-butylpicolinic acid): weaker both in strength and duration than that of 5-butylpicolinic acid
LD50 at 48 h (in vivo; ip, acute toxicity LD50, intraperitoneally administered, calculated for 5-butylpicolinic acid, intraperitoneal, mice): > 1210 mg/kg
LD50 at 48 h (in vivo; ip, acute toxicity LD50, intraperitoneally administered, intraperitoneal, mice, two days after administration): > 4000 mg/kg
LD50 at 48 h (in vivo; po, acute toxicity LD50, orally administered, calculated for 5-butylpicolinic acid, mice): > 1210 mg/kg
LD50 at 48 h (in vivo; po, acute toxicity LD50, orally administered, oral, mice, two days after administration): > 4000 mg/kg
deaths (ddY-Strain female mice): no case of death was noted

CCCCc1ccc(C(=O)O)nc1 [B, 5-butylpicolinic acid, reference compound]
Blood pressure lowering rate, 1h [1, 4]: 16.9%
Blood pressure lowering rate, 2h [1, 4]: 0.7%
Blood pressure lowering rate, 3h [1, 4]: 0%
Blood pressure lowering rate, 4h [1, 4]: 0%
Blood pressure lowering rate, 1h [1, 5]: 35.7%
Blood pressure lowering rate, 2h [1, 5]: 21.7%
Blood pressure lowering rate, 3h [1, 5]: 11.8%
Blood pressure lowering rate, 4h [1, 5]: 0%
Blood pressure lowering rate, 1h (Normotensive Wistar rats; 50 mg/kg oral): 27.0%
Blood pressure lowering rate, 2h (Normotensive Wistar rats; 50 mg/kg oral): 33.5%
Blood pressure lowering rate, 3h (Normotensive Wistar rats; 50 mg/kg oral): 26.2%
Blood pressure lowering rate, 4h (Normotensive Wistar rats; 50 mg/kg oral): 0%
LD50 at 48 h (in vivo; ip): 89 mg/kg
LD50 at 48 h (in vivo; po): 180 mg/kg
occurrence of gastric trouble (stomach of rats): Light degrees of edema, congestion, or bleeding were noted in the stomachs of all cases (five rats)
